Assay results from patent publication US6479435B1, “Diaryl ethers and processes for their preparation and herbicidal and desiccant compositions containing them” (ISK Americas Incorporated, priority 1997, dated 2002).

Columns and labels:
Format in all cases: in vivo
[1] = test system: ivyleaf morningglory (Ipomoea hederacea, IPOHE); experiment: Pre-emerge greenhouse herbicide test, phytotoxicity rating; conditions: 14 days after application, rating scale 0-100
Method in brief: (§1)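 Seeds sown in sandy loam mix one day before track-sprayer application of compounds in acetone at 125–1000 g ai/ha (187 l/ha), then surface-watered to incorporate and bottom-watered. Visual rating 14 days after application on a 0–100 scale (0 = no damage, 100 = all plants dead).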

[2] = test system: sicklepod (Cassia obtusifolia, CASOB); experiment: as above; conditions: 14 days after application, rating scale 0-100
Method in brief: as §1

[3] = test system: redroot pigweed (Amaranthus retroflexus, AMARE); experiment: as above; conditions: 14 days after application, rating scale 0-100
Method in brief: as §1

[4] = test system: Johnsongrass (Sorghum halepense, SORHA); experiment: as above; conditions: 14 days after application, rating scale 0-100
Method in brief: as §1

[5] = test system: barnyardgrass (Echinochloa crusgalli, ECHCG); experiment: as above; conditions: 14 days after application, rating scale 0-100
Method in brief: as §1

[6] = test system: large crabgrass (Digitaria sanguinalis, DIGSA); experiment: as above; conditions: 14 days after application, rating scale 0-100
Method in brief: as §1

[7] = test system: lambsquarters (Chenopodium album, CHEAL); experiment: as above; conditions: 14 days after application, rating scale 0-100
Method in brief: as §1

[8] = test system: green foxtail (Setaria viridis, SETVI); experiment: as above; conditions: 14 days after application, rating scale 0-100
Method in brief: as §1

[9] = test system: common ragweed (Ambrosia artemisiifolia L., AMBEL); experiment: as above; conditions: 14 days after application, rating scale 0-100
Method in brief: as §1

[10] = test system: velvetleaf (Abutilon theophrasti, ABUTH); experiment: as above; conditions: 14 days after application, rating scale 0-100
Method in brief: as §1

[11] = test system: upland rice (Oryza sp., var.Tebonnet, RICE); experiment: Post-emerge greenhouse test, crop damage rating; conditions: 14 days after application, scale 0-100
Method in brief: (§2)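 Compounds in acetone with 0.25% v/v non-ionic surfactant were track-sprayed at 187 l/ha over plants at the 2-3 leaf stage, at 63 to 1000 g ai/ha. Pots were bottom-watered. Injury was scored visually 14 days later on a 0-100 scale, where 0 is no damage and 100 is complete plant death.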

[12] = test system: field corn (Zea mays L., var. Dekalb 535, CORN); experiment: Post-emerge greenhouse test, crop damage rating; conditions: 14 days after application, scale 0-100
Method in brief: as §2

[13] = test system: upland rice (Oryza sp., var.Tebonnet, RICE); experiment: Pre-emerge greenhouse test, crop damage rating; conditions: 14 days after application, rating scale 0-100
Method in brief: as §1

[14] = test system: field corn (Zea mays L., var. Dekalb 535, CORN); experiment: Pre-emerge greenhouse test, crop damage rating; conditions: 14 days after application, rating scale 0-100
Method in brief: as §1

[15] = test system: soybean (Glycine max L., var. Pella 86, SOY); experiment: Pre-emerge greenhouse test, crop damage rating; set-up: key to SOY crop damage rating: 0 = no damage, 100 = complete death of all plants; conditions: 14 days after application, rating scale 0-100
Method in brief: as §1

[16] = test system: common ragweed (Ambrosia artemisiifolia L., AMBEL); experiment: Post-emerge greenhouse herbicide test, phytotoxicity rating; conditions: 14 days after application, scale 0-100
Method in brief: as §2

[17] = test system: soybean (Glycine max L., var. Pella 86, SOY); experiment: Post-emerge greenhouse test, crop damage rating; set-up: key to crop damage rating SOY: 0-100 scale: 0 = no damage, 100 = complete death of all plants; conditions: 14 days after application, scale 0-100
Method in brief: as §2

[18] = test system: ivyleaf morningglory (Ipomoea hederacea, IPOHE); experiment: Post-emerge greenhouse herbicide test, phytotoxicity rating; conditions: 14 days after application, scale 0-100
Method in brief: as §2

[19] = test system: sicklepod (Cassia obtusifolia, CASOB); experiment: as above; conditions: 14 days after application, scale 0-100
Method in brief: as §2

[20] = test system: redroot pigweed (Amaranthus retroflexus, AMARE); experiment: as above; conditions: 14 days after application, scale 0-100
Method in brief: as §2

[21] = test system: Johnsongrass (Sorghum halepense, SORHA); experiment: as above; conditions: 14 days after application, scale 0-100
Method in brief: as §2

[22] = test system: barnyardgrass (Echinochloa crusgalli, ECHCG); experiment: as above; conditions: 14 days after application, scale 0-100
Method in brief: as §2

[23] = test system: large crabgrass (Digitaria sanguinalis, DIGSA); experiment: as above; conditions: 14 days after application, scale 0-100
Method in brief: as §2

[24] = test system: lambsquarters (Chenopodium album, CHEAL); experiment: as above; conditions: 14 days after application, scale 0-100
Method in brief: as §2

[25] = test system: green foxtail (Setaria viridis, SETVI); experiment: as above; conditions: 14 days after application, scale 0-100
Method in brief: as §2

[26] = test system: velvetleaf (Abutilon theophrasti, ABUTH); experiment: as above; conditions: 14 days after application, scale 0-100
Method in brief: as §2

Compound: O=c1n(-c2cc(Oc3ncccc3[N+](=O)[O-])c(Cl)cc2F)c(=S)n2n1CCCC2 [Compound 8-19]
- IPOHE phytotoxicity rating ([1]; Rate 125 g al/ha): 40
- IPOHE phytotoxicity rating ([1]; Rate 500 g al/ha): 90
- CASOB phytotoxicity rating ([2]; Rate 125 g al/ha): 20
- CASOB phytotoxicity rating ([2]; Rate 500 g al/ha): 100
- AMARE phytotoxicity rating ([3]; Rate 125 g al/ha): 100
- AMARE phytotoxicity rating ([3]; Rate 500 g al/ha): 100
- SORHA phytotoxicity rating ([4]; Rate 125 g al/ha): 80
- SORHA phytotoxicity rating ([4]; Rate 500 g al/ha): 95
- ECHCG phytotoxicity rating ([5]; Rate 125 g al/ha): 50
- ECHCG phytotoxicity rating ([5]; Rate 500 g al/ha): 95
- DIGSA phytotoxicity rating ([6]; Rate 125 g al/ha): 30
- DIGSA phytotoxicity rating ([6]; Rate 500 g al/ha): 100
- CHEAL phytotoxicity rating ([7]; Rate 125 g al/ha): 100
- CHEAL phytotoxicity rating ([7]; Rate 500 g al/ha): 100
- SETVI phytotoxicity rating ([8]; Rate 125 g al/ha): 100
- SETVI phytotoxicity rating ([8]; Rate 500 g al/ha): 100
- AMBEL phytotoxicity rating ([9]; Rate 125 g al/ha): 50
- AMBEL phytotoxicity rating ([9]; Rate 500 g al/ha): 100
- ABUTH phytotoxicity rating ([10]; Rate 125 g al/ha): 100
- ABUTH phytotoxicity rating ([10]; Rate 500 g al/ha): 100
- crop damage rating RICE ([11]; rate 63 g ai/ha): 40
- crop damage rating RICE ([11]; rate 500 g ai/ha): 60
- crop damage rating CORN ([12]; rate 63 g ai/ha): 30
- crop damage rating CORN ([12]; rate 500 g ai/ha): 30
- RICE crop damage rating ([13]; Rate 125 g al/ha): 50
- RICE crop damage rating ([13]; Rate 500 g al/ha): 80
- CORN crop damage rating ([14]; Rate 125 g al/ha): 15
- CORN crop damage rating ([14]; Rate 500 g al/ha): 30
- SOY crop damage rating ([15]; Rate 125 g al/ha): 20
- SOY crop damage rating ([15]; Rate 500 g al/ha): 0
- phytotoxicity rating AMBEL ([16]; rate 63 g ai/ha): 90
- phytotoxicity rating AMBEL ([16]; rate 500 g ai/ha): 90
- crop damage rating SOY ([17]; rate 63 g ai/ha): 65
- crop damage rating SOY ([17]; rate 500 g ai/ha): 50
- phytotoxicity rating IPOHE ([18]; rate 63 g ai/ha): 100
- phytotoxicity rating IPOHE ([18]; rate 500 g ai/ha): 100
- phytotoxicity rating CASOB ([19]; rate 63 g ai/ha): 70
- phytotoxicity rating CASOB ([19]; rate 500 g ai/ha): 90
- phytotoxicity rating AMARE ([20]; rate 63 g ai/ha): 100
- phytotoxicity rating AMARE ([20]; rate 500 g ai/ha): 100
- phytotoxicity rating SORHA ([21]; rate 63 g ai/ha): 50
- phytotoxicity rating SORHA ([21]; rate 500 g ai/ha): 50
- phytotoxicity rating ECHCG ([22]; rate 63 g ai/ha): 50
- phytotoxicity rating ECHCG ([22]; rate 500 g ai/ha): 50
- phytotoxicity rating DIGSA ([23]; rate 63 g ai/ha): 30
- phytotoxicity rating DIGSA ([23]; rate 500 g ai/ha): 30
- phytotoxicity rating CHEAL ([24]; rate 63 g ai/ha): 100
- phytotoxicity rating CHEAL ([24]; rate 500 g ai/ha): 100
- phytotoxicity rating SETVI ([25]; rate 63 g ai/ha): 60
- phytotoxicity rating SETVI ([25]; rate 500 g ai/ha): 90
- phytotoxicity rating ABUTH ([26]; rate 63 g ai/ha): 100
- phytotoxicity rating ABUTH ([26]; rate 500 g ai/ha): 100
